These results are taken from US9999617B2, “Compositions for treating bacterial infections” (TRUSTEES OF DARTMOUTH COLLEGE, priority 2009, dated 2018).

In brackets after ≈: the same amount, converted by molar mass. Like-named read-outs stand apart in the source and are kept apart here.

The test concerns S. aureus. The experiment in a line: Minimum Inhibitory Concentration (MIC), inhibition of growth of S. aureus in vitro. Particulars: Staphylococcus aureus. The test is classed as cell-based. The method, then:
Once the compounds of the present invention were identified through the MazEF screening assay described above, the activity of the compounds to inhibit growth of S. aureus in vitro was tested using the standard method of determining Minimum Inhibitory Concentrations (MICs). Such methods are well known to those of skill in the art since determining MIC doses is a standard assay in development of antibiotic drugs. For example, MIC values can be determined according to the Clinical and Laboratory Standards Institute guidelines. In Table 1, the MIC values are presented for each of the ten compounds identified through the MazEF screening assay as having potential for antibiotic activity in S. aureus.

Setting [1] is: S. aureus growth in vitro, read-out: MIC.

Consider `O=C1c2ccccc2-c2onc3ccc(Cl)c1c23` [Compound 5], for which inhibition of growth (MIC) required 6.25 µg/mL (≈ 24.4 µM).

For the compound `COc1cc(/C=C2/S/C(=N\S(=O)(=O)c3ccccc3)NC2=O)ccc1O` [Compound 7], the MIC under setting [1] amounted to 100 µg/mL (≈ 256 µM).

With `CN1C(=O)/C(=C/c2cc(Br)cc([N+](=O)[O-])c2O)SC1=S` [Compound 2], the MIC under setting [1] is 12.5 µg/mL (≈ 33.3 µM).

Compound `Cc1ccc(Nc2nc3nonc3nc2N)c(C)c1` [Compound 4] registered an MIC of 12.5 µg/mL (≈ 48.8 µM).

In the case of `COc1ccc(/C=C2\SC(=O)NC2=S)cc1` [Compound 6], the MIC under setting [1] worked out at 0.78 µg/mL (≈ 3.1 µM).

As to `CCN1CCc2c(sc(NC(=O)Nc3ccc(Cl)cc3)c2C(N)=O)C1` [Compound 9], the MIC under setting [1] came to 100 µg/mL (≈ 264 µM).
